Results on one molecule are retold here after US8814930B2, “Biodegradable endoprosthesis and methods for their fabrication” (Elixir Medical Corporation, priority 2007, dated 2014).

The nature of the data set: Pharmacokinetic release profile of novolimus from a stent (FIG. 35). It counts as in vivo.

For `CO[C@@H]1C[C@H](C[C@@H](C)[C@@H]2CC(=O)[C@H](C)/C=C(\C)[C@@H](O)[C@@H](OC)C(=O)[C@H](C)C[C@H](C)/C=C/C=C/C=C(\C)[C@@H](O)C[C@@H]3CC[C@@H](C)[C@@](O)(O3)C(=O)C(=O)N3CCCC[C@H]3C(=O)O2)CC[C@H]1O` [novolimus, 16-O-desmethyl-rapamycin], the “therapeutic tissue drug concentration” value (at 90 days) is listed as 0.5 ng/mg. In addition, under “in one month, from a stent”, the drug released entry was “over 85%”.
